Legend:
[1] = tested on: tau accumulated in the brain with AD; assay: In vitro autoradiography using autopsied brain tissue of Alzheimer's disease patient; type: binding, human; conditions: for radioactivity accumulation in the brain tissue section of the frontal lobe / radioactivity accumulation in the brain tissue section of the temporal lobe: AD patient autopsied brain section, 370 kBq/mL, 2 hours room temperature; for nonspecific binding to the brain white matter: AD patient autopsied brain sections; for visualization of tau (autoradiography compared with tau and Aβ immunostaining): AD patient temporal lobe section, adjacent sections immunostained (AT8, BC05)
Protocol: (Evaluation 1) In Vitro Autoradiography Using Autopsied Brain Tissue of Alzheimer's Disease Patient (1) In Vitro Autoradiography
Autopsied brain tissue sections of an Alzheimer's disease (AD) patient (sections from a frontal lobe site and a temporal lobe site, 6 μm) were used, which were provided from Graduate School of Medicine, Kyoto University and National Cerebral and Cardiovascular Center Hospital. Deparaffinization treatment was performed by washing with xylene (15 min×2), ethanol (1 min×2), a 90 vol % aqueous ethanol solution (1 min×1), an 80 vol % aqueous ethanol solution (1 min×1), a 70 vol % aqueous ethanol solution (1 min×1), and purified water (2.5 min×2). A 10 vol % aqueous ethanol solution of each radioactive iodine-labeled BIP derivative compound (370 kBq/mL) obtained by the method shown in Example 7 was added thereto, and the tissue sections were incubated at room temperature for 2 hours. The tissue sections were washed with a 50 vol % aqueous ethanol solution (1 hr×1), then exposed to an imaging plate (BAS-SR2025 manufactured by Fujifilm Corp.), and analyzed using a bioimaging analyzer (bioimaging analyzer BAS-5000 manufactured by Fujifilm Corp.). Multi Gauge manufactured by Fujifilm Corp. was used in quantitative analysis.
FIGS. 5E and 5F show the results obtained using [^125I]BIP-NMe2. FIGS. 5G and 5H show the results obtained using [^125I]BIP-OMe. FIGS. 5I and 5J show the results obtained using [^125I]BIP-Me. FIGS. 5E, 5G, and 5I show the results obtained using the brain tissue section of the frontal lobe. FIGS. 5F, 5H, and 5J show the results obtained using the brain tissue section of the temporal lobe.
Tau and Aβ were immunostained using sections adjacent to the autopsied AD brain tissue sections used in autoradiography. An anti-phosphorylated tau monoclonal antibody (AT8, manufactured by Thermo Fisher Scientific Inc.) was used as a primary antibody in the immunostaining of tau, and an anti-Aβ1-42 monoclonal antibody (BC05, manufactured by Wako Pure Chemical Industries, Ltd.) was used as a primary antibody in the immunostaining of Aβ. Deparaffinization treatment was performed by washing with xylene (15 min×2), ethanol (1 min×2), a 90 vol % aqueous ethanol solution (1 min×1), an 80 vol % aqueous ethanol solution (1 min×1), a 70 vol % aqueous ethanol solution (1 min×1), and purified water (2.5 min×2). The antigens were retrieved by autoclaving (15 min) in a 0.01 mol/L citrate buffer solution (pH 6.0) and formic acid treatment (5 min). The tissue sections were washed with running water (5 min) and then washed with PBS-Tween 20 (2 min×1). The tissue sections were reacted with primary antibody solutions at room temperature for 1 hour and then washed with PBS-Tween 20 (5 min×3). The tissue sections were reacted with Histofine Simple Stain MAX-PO (MULTI) (manufactured by Nichirei Biosciences Inc.) at room temperature for 30 minutes and then washed with PBS-Tween 20 (3 min×3) and TBS (5 min×1). Finally, the tissue sections were reacted with a DAB solution at room temperature for 1 minute. The tissue sections were washed with distilled water (1 min×1) to terminate the reaction. The brain tissue sections were mounted on slides and then observed under a microscope (BZ-9000 manufactured by Keyence Corporation).
FIGS. 5A and 5B show the results obtained using the brain tissue section of the frontal lobe. FIGS. 5C and 5D show the results obtained using the brain tissue section of the temporal lobe. FIGS. 5A and 5C show the results of immunostaining with the antibody against tau. FIGS. 5B and 5D show the results of immunostaining with the antibody against Aβ.

[2] = Evaluation of in vivo radioactivity distribution in normal mouse; conditions: normal ddY male mice, tail vein; for radioactivity distribution, Blood / radioactivity distribution, Brain / radioactivity distribution, Heart / radioactivity distribution, Intestine / radioactivity distribution, Kidney / radioactivity distribution, Liver / radioactivity distribution, Lung / radioactivity distribution, Pancreas / radioactivity distribution, Spleen / radioactivity distribution, Stomach / radioactivity distribution, Thyroid gland: mean (SD)
Protocol: (Evaluation 2) Evaluation of In Vivo Radioactivity Distribution in Normal Mouse
Each compound of [^125I]BIP-NMe2, [^125I]BIP-OMe, and [^125I]BIP-Me synthesized according to the method shown in Example 7 was diluted with saline containing 10 vol % ethanol and 0.1 vol % Tween 80. Each radioactive iodine-labeled BIP derivative compound was administered to a group of 5-week-old ddY male mice (26 to 28 g; each group involved 5 mice) from the tail veins thereof at 19.6 to 29.4 kBq (100 μL) per mouse. After 2, 10, 30, or 60 minutes, the mice were slaughtered. After blood collection, the organs were taken out, and their weights and radioactivity were measured.
In Tables 2 to 4, the numerical values shown in the column “Time after administration” are means of % ID for the stomach and the thyroid gland and means of % ID/g for the other tissues with standard deviation (SD) shown in parenthesis.

Cc1ccn2c(c1)nc1cc([125I])ccc12 [[^125I]BIP-Me, 7-[^125I]iodo-3-methylbenzo[4,5]imidazo[1,2-a]pyridine]
radioactivity accumulation in the brain tissue section of the frontal lobe [1]: none
radioactivity accumulation in the brain tissue section of the temporal lobe [1]: exhibited radioactivity accumulation in only the brain tissue section of the temporal lobe
nonspecific binding to the brain white matter [1]: low
visualization of tau (autoradiography compared with tau and Aβ immunostaining) [1]: clearly visualizes tau accumulated in the brain with AD
clearance from the brain [2]: rapid clearance from the brain
transfer to the brain early after administration [2]: high transfer to the brain
radioactivity distribution, Blood ([2]; 2 min after administration): 3.63(0.19) % ID/g
radioactivity distribution, Brain ([2]; 2 min after administration): 4.28(0.50) % ID/g
radioactivity distribution, Heart ([2]; 2 min after administration): 4.40(0.59) % ID/g
radioactivity distribution, Intestine ([2]; 2 min after administration): 3.38(0.55) % ID/g
radioactivity distribution, Kidney ([2]; 2 min after administration): 7.32(0.61) % ID/g
radioactivity distribution, Liver ([2]; 2 min after administration): 19.7(2.89) % ID/g
radioactivity distribution, Lung ([2]; 2 min after administration): 6.54(0.76) % ID/g
radioactivity distribution, Pancreas ([2]; 2 min after administration): 3.85(0.39) % ID/g
radioactivity distribution, Spleen ([2]; 2 min after administration): 4.22(0.43) % ID/g
radioactivity distribution, Stomach ([2]; 2 min after administration): 2.68(0.25) % ID
radioactivity distribution, Thyroid gland ([2]; 2 min after administration): 0.06(0.03) % ID
radioactivity distribution, Blood ([2]; 10 min after administration): 2.37(0.22) % ID/g
radioactivity distribution, Brain ([2]; 10 min after administration): 0.94(0.17) % ID/g
radioactivity distribution, Heart ([2]; 10 min after administration): 1.61(0.19) % ID/g
radioactivity distribution, Intestine ([2]; 10 min after administration): 14.2(5.56) % ID/g
radioactivity distribution, Kidney ([2]; 10 min after administration): 6.75(0.83) % ID/g
radioactivity distribution, Liver ([2]; 10 min after administration): 13.7(1.67) % ID/g
radioactivity distribution, Lung ([2]; 10 min after administration): 2.37(0.31) % ID/g
radioactivity distribution, Pancreas ([2]; 10 min after administration): 1.38(0.29) % ID/g
radioactivity distribution, Spleen ([2]; 10 min after administration): 1.94(0.29) % ID/g
radioactivity distribution, Stomach ([2]; 10 min after administration): 6.52(1.23) % ID
radioactivity distribution, Thyroid gland ([2]; 10 min after administration): 0.03(0.02) % ID
radioactivity distribution, Blood ([2]; 30 min after administration): 1.53(0.52) % ID/g
radioactivity distribution, Brain ([2]; 30 min after administration): 0.14(0.03) % ID/g
radioactivity distribution, Heart ([2]; 30 min after administration): 0.66(0.10) % ID/g
radioactivity distribution, Intestine ([2]; 30 min after administration): 19.5(2.03) % ID/g
radioactivity distribution, Kidney ([2]; 30 min after administration): 4.05(1.19) % ID/g
radioactivity distribution, Liver ([2]; 30 min after administration): 7.32(0.71) % ID/g
radioactivity distribution, Lung ([2]; 30 min after administration): 1.14(0.11) % ID/g
radioactivity distribution, Pancreas ([2]; 30 min after administration): 0.50(0.08) % ID/g
radioactivity distribution, Spleen ([2]; 30 min after administration): 0.60(0.13) % ID/g
radioactivity distribution, Stomach ([2]; 30 min after administration): 7.05(2.50) % ID
radioactivity distribution, Thyroid gland ([2]; 30 min after administration): 0.02(0.00) % ID
radioactivity distribution, Blood ([2]; 60 min after administration): 0.77(0.12) % ID/g
radioactivity distribution, Brain ([2]; 60 min after administration): 0.04(0.00) % ID/g
radioactivity distribution, Heart ([2]; 60 min after administration): 0.36(0.07) % ID/g
radioactivity distribution, Intestine ([2]; 60 min after administration): 28.7(5.09) % ID/g
radioactivity distribution, Kidney ([2]; 60 min after administration): 2.19(1.23) % ID/g
radioactivity distribution, Liver ([2]; 60 min after administration): 4.69(0.54) % ID/g
radioactivity distribution, Lung ([2]; 60 min after administration): 0.65(0.11) % ID/g
radioactivity distribution, Pancreas ([2]; 60 min after administration): 0.40(0.24) % ID/g
radioactivity distribution, Spleen ([2]; 60 min after administration): 0.36(0.10) % ID/g
radioactivity distribution, Stomach ([2]; 60 min after administration): 7.43(1.29) % ID
radioactivity distribution, Thyroid gland ([2]; 60 min after administration): 0.01(0.00) % ID

CN(C)c1ccn2c(c1)nc1cc([125I])ccc12 [[^125I]BIP-NMe2, 7-[^125I]iodo-3-dimethylaminopyrido[1,2-a]benzimidazole]
radioactivity accumulation in the brain tissue section of the frontal lobe [1]: none
radioactivity accumulation in the brain tissue section of the temporal lobe [1]: exhibited radioactivity accumulation in only the brain tissue section of the temporal lobe
nonspecific binding to the brain white matter [1]: low
visualization of tau (autoradiography compared with tau and Aβ immunostaining) [1]: clearly visualizes tau accumulated in the brain with AD
clearance from the brain [2]: rapid clearance from the brain
transfer to the brain early after administration [2]: high transfer to the brain
radioactivity distribution, Blood ([2]; 2 min after administration): 2.91(0.75) % ID/g
radioactivity distribution, Brain ([2]; 2 min after administration): 3.98(0.32) % ID/g
radioactivity distribution, Heart ([2]; 2 min after administration): 6.38(1.09) % ID/g
radioactivity distribution, Intestine ([2]; 2 min after administration): 3.07(0.52) % ID/g
radioactivity distribution, Kidney ([2]; 2 min after administration): 14.3(1.91) % ID/g
radioactivity distribution, Liver ([2]; 2 min after administration): 9.78(2.50) % ID/g
radioactivity distribution, Lung ([2]; 2 min after administration): 8.80(1.70) % ID/g
radioactivity distribution, Pancreas ([2]; 2 min after administration): 5.66(1.03) % ID/g
radioactivity distribution, Spleen ([2]; 2 min after administration): 2.97(0.92) % ID/g
radioactivity distribution, Stomach ([2]; 2 min after administration): 1.71(0.43) % ID
radioactivity distribution, Thyroid gland ([2]; 2 min after administration): 0.05(0.03) % ID
radioactivity distribution, Blood ([2]; 10 min after administration): 1.48(0.18) % ID/g
radioactivity distribution, Brain ([2]; 10 min after administration): 1.66(0.16) % ID/g
radioactivity distribution, Heart ([2]; 10 min after administration): 2.53(0.24) % ID/g
radioactivity distribution, Intestine ([2]; 10 min after administration): 7.45(0.50) % ID/g
radioactivity distribution, Kidney ([2]; 10 min after administration): 17.0(1.70) % ID/g
radioactivity distribution, Liver ([2]; 10 min after administration): 18.1(0.53) % ID/g
radioactivity distribution, Lung ([2]; 10 min after administration): 3.59(0.43) % ID/g
radioactivity distribution, Pancreas ([2]; 10 min after administration): 4.77(0.27) % ID/g
radioactivity distribution, Spleen ([2]; 10 min after administration): 5.15(0.84) % ID/g
radioactivity distribution, Stomach ([2]; 10 min after administration): 3.30(0.49) % ID
radioactivity distribution, Thyroid gland ([2]; 10 min after administration): 0.03(0.01) % ID
radioactivity distribution, Blood ([2]; 30 min after administration): 1.18(0.26) % ID/g
radioactivity distribution, Brain ([2]; 30 min after administration): 0.38(0.03) % ID/g
radioactivity distribution, Heart ([2]; 30 min after administration): 1.00(0.15) % ID/g
radioactivity distribution, Intestine ([2]; 30 min after administration): 14.5(3.43) % ID/g
radioactivity distribution, Kidney ([2]; 30 min after administration): 7.45(1.11) % ID/g
radioactivity distribution, Liver ([2]; 30 min after administration): 12.7(1.35) % ID/g
radioactivity distribution, Lung ([2]; 30 min after administration): 1.77(0.31) % ID/g
radioactivity distribution, Pancreas ([2]; 30 min after administration): 1.51(0.19) % ID/g
radioactivity distribution, Spleen ([2]; 30 min after administration): 2.97(0.44) % ID/g
radioactivity distribution, Stomach ([2]; 30 min after administration): 6.35(1.13) % ID
radioactivity distribution, Thyroid gland ([2]; 30 min after administration): 0.02(0.01) % ID
radioactivity distribution, Blood ([2]; 60 min after administration): 0.93(0.23) % ID/g
radioactivity distribution, Brain ([2]; 60 min after administration): 0.16(0.01) % ID/g
radioactivity distribution, Heart ([2]; 60 min after administration): 0.63(0.05) % ID/g
radioactivity distribution, Intestine ([2]; 60 min after administration): 23.5(3.65) % ID/g
radioactivity distribution, Kidney ([2]; 60 min after administration): 5.45(1.90) % ID/g
radioactivity distribution, Liver ([2]; 60 min after administration): 5.82(0.91) % ID/g
radioactivity distribution, Lung ([2]; 60 min after administration): 0.99(0.07) % ID/g
radioactivity distribution, Pancreas ([2]; 60 min after administration): 0.80(0.15) % ID/g
radioactivity distribution, Spleen ([2]; 60 min after administration): 1.97(0.25) % ID/g
radioactivity distribution, Stomach ([2]; 60 min after administration): 7.59(1.39) % ID
radioactivity distribution, Thyroid gland ([2]; 60 min after administration): 0.01(0.00) % ID
